Test results as given in patent US9593122B2, “Substituted pyrazolylpyrazole derivative and use of same as herbicide” (KYOYU AGRI CO., LTD., priority 2013, dated 2017).

How the values were obtained:
Test in all cases: Paddy herbicidal activity test
Type in all cases: in vivo
Echinochloa crus-galli = details: irrigated paddy pot, treated at 3.5 leaf stage of Echinochloa crus-galli, 30 days
Method: (§1) Rice paddy soil was filled into a 1/10000 are pot followed by the addition of suitable amounts of water and chemical fertilizer, kneading, seeding with Echinochloa crus-galli, Monochoria vaginalis and Scirpus juncoides and maintaining in an irrigated state at a water depth of 3 cm.
(§2) Wettable powder of Target Compound (I) shown in Table 1 prepared in compliance with the preparation examples were diluted with a suitable amount of water, rice plants in the 2.0 leaf stage were transplanted during 3.5 leaf stage of Echinochloa crus-galli, and treated by dropping in chemical in the prescribed amount per are using a pipette.
(§3) After treating for 30 days in a glass greenhouse at an average atmospheric temperature of 30° C., the herbicidal efficacy thereof was investigated.
(§4) Evaluation of herbicidal efficacy was carried out by comparing growth inhibition rate (%) with an untreated group, while evaluation of phytotoxicity was carried out by comparing growth inhibition rate (%) with the state of a complete eradication group, and were evaluated at 11 levels indicated below.

Monochoria vaginalis = details: irrigated paddy pot, 30 days
Method: as §1, §2, §3, §4

Scirpus juncoides = details: irrigated paddy pot, 30 days
Method: as §1, §2, §3, §4

Row | Structure (SMILES) | Echinochloa crus-galli herbicidal efficacy (growth inhibition level) (Echinochloa crus-galli; 1g a.i./10a) | Echinochloa crus-galli herbicidal efficacy (growth inhibition level) (Echinochloa crus-galli; 5g a.i./10a) | Monochoria vaginalis herbicidal efficacy (growth inhibition level) (Monochoria vaginalis; 1g a.i./10a) | Monochoria vaginalis herbicidal efficacy (growth inhibition level) (Monochoria vaginalis; 5g a.i./10a) | Scirpus juncoides herbicidal efficacy (growth inhibition level) (Scirpus juncoides; 1g a.i./10a) | Scirpus juncoides herbicidal efficacy (growth inhibition level) (Scirpus juncoides; 5g a.i./10a)
1 | N#Cc1cnn(-c2nn3c(c2Cl)CCCC3)c1N(CCC(F)=C(F)F)C(=O)C(F)(F)F [Compound 20] | 9 (9: 90% to less than 100%) | 9 (9: 90% to less than 100%) | 8 (8: 80% to less than 90%) | 9 (9: 90% to less than 100%) | 8 (8: 80% to less than 90%) | 8 (8: 80% to less than 90%)
2 | CC(C)=CCN(C(=O)C(F)(F)F)c1c(C#N)cnn1-c1nn2c(c1Cl)CCCC2 [Compound 25] | 9 (9: 90% to less than 100%) | 10 (10: 100%) | 9 (9: 90% to less than 100%) | 9 (9: 90% to less than 100%) | 8 (8: 80% to less than 90%) | 8 (8: 80% to less than 90%)
3 | C=CCN(C(=O)C(F)(F)C(F)(F)F)c1c(C#N)cnn1-c1nn2c(c1Cl)CCCC2 [Compound 28] | 9 (9: 90% to less than 100%) | 9 (9: 90% to less than 100%) | 8 (8: 80% to less than 90%) | 10 (10: 100%) | 8 (8: 80% to less than 90%) | 9 (9: 90% to less than 100%)
4 | C=C(C)CNc1c([N+](=O)[O-])cnn1-c1nn2c(c1Cl)CCCC2 [Compound 31] | 9 (9: 90% to less than 100%) | 9 (9: 90% to less than 100%) | 9 (9: 90% to less than 100%) | 9 (9: 90% to less than 100%) | 7 (7: 70% to less than 80%) | 8 (8: 80% to less than 90%)
5 | CC(C)=CCNc1c([N+](=O)[O-])cnn1-c1nn2c(c1Cl)CCCC2 [Compound 35] | 9 (9: 90% to less than 100%) | 9 (9: 90% to less than 100%) | 9 (9: 90% to less than 100%) | 10 (10: 100%) | 8 (8: 80% to less than 90%) | 10 (10: 100%)
6 | C=CCN(C(=O)C(F)(F)F)c1c([N+](=O)[O-])cnn1-c1nn2c(c1Cl)CCCC2 [Compound 36] | 9 (9: 90% to less than 100%) | 10 (10: 100%) | 8 (8: 80% to less than 90%) | 9 (9: 90% to less than 100%) | 8 (8: 80% to less than 90%) | 9 (9: 90% to less than 100%)
7 | O=C(N(C/C=C\Cl)c1c([N+](=O)[O-])cnn1-c1nn2c(c1Cl)CCCC2)C(F)(F)F [Compound 39] | 9 (9: 90% to less than 100%) | 10 (10: 100%) | 7 (7: 70% to less than 80%) | 8 (8: 80% to less than 90%) | 8 (8: 80% to less than 90%) | 8 (8: 80% to less than 90%)
8 | C=CCCNc1c(C#N)cnn1-c1nn2c(c1Br)CCCC2 [Compound 42] | 8 (8: 80% to less than 90%) | 9 (9: 90% to less than 100%) | 7 (7: 70% to less than 80%) | 8 (8: 80% to less than 90%) | 8 (8: 80% to less than 90%) | 8 (8: 80% to less than 90%)
9 | N#Cc1cnn(-c2nn3c(c2Br)CCCC3)c1NC/C=C\Cl [Compound 45] | 9 (9: 90% to less than 100%) | 9 (9: 90% to less than 100%) | 9 (9: 90% to less than 100%) | 9 (9: 90% to less than 100%) | 9 (9: 90% to less than 100%) | 9 (9: 90% to less than 100%)
10 | CC(C)=CCNc1c(C#N)cnn1-c1nn2c(c1Br)CCCC2 [Compound 48] | 8 (8: 80% to less than 90%) | 9 (9: 90% to less than 100%) | 8 (8: 80% to less than 90%) | 10 (10: 100%) | 7 (7: 70% to less than 80%) | 8 (8: 80% to less than 90%)
11 | C=CCN(C(=O)C(F)(F)F)c1c(C#N)cnn1-c1nn2c(c1Br)CCCC2 [Compound 49] | 8 (8: 80% to less than 90%) | 9 (9: 90% to less than 100%) | 7 (7: 70% to less than 80%) | 9 (9: 90% to less than 100%) | 8 (8: 80% to less than 90%) | 9 (9: 90% to less than 100%)
12 | C=CCCN(C(=O)C(F)(F)F)c1c(C#N)cnn1-c1nn2c(c1Br)CCCC2 [Compound 50] | 9 (9: 90% to less than 100%) | 10 (10: 100%) | 7 (7: 70% to less than 80%) | 9 (9: 90% to less than 100%) | 7 (7: 70% to less than 80%) | 8 (8: 80% to less than 90%)
